Molecules are shown by their SMILES.

What all share (type): cell-based
Test [1] has as its target T1, human serotonin transporter (hSERT) (Homo sapiens, UniProt P31645).
T1 construct: expressed in transfected cells
The test is described as follows: Assay of monoamine uptake: inhibition of serotonin uptake. The note with it: Chinese Hamster Ovary cells expressing hSERT; 20 nM [3H]-neurotransmitter mixture; ambient temperature; read-out: hSERT pEC50 (inhibition of serotonin uptake) (converted). As to the method: (§1) The in vitro test for the inhibition of dopamine and serotonin uptake was performed in Chinese Hamster Ovary cells expressing the human dopamine transporter (hDAT) or the human serotonin transporter (hSERT). The in vitro test for the inhibition of noradrenaline uptake was performed in Madin Darby Canine Kidney Cells (MDCK) expressing the human noradrenaline transporter (hNET). Briefly, cell lines stably overexpressing the appropriate human transporter were propagated and plated according to standard cell culture techniques. Following plating, cells were left to adhere for either one or two days. A 6-point serial dilution (normally 1E-5M to 1E-10M) of test and reference compounds was prepared, added to the washed cells and incubated for 5 minutes at ambient temperature for dopamine or serotonin transporter overexpressing and 37° C. for noradrenaline overexpressing cells. Next, a final concentration of 20 nM of appropriate neurotransmitter (mixture of [^3H]-neurotransmitter and non-labelled neurtoransmitter) was added and the cells were incubated for three or five minutes at ambient temperature for dopamine or serotonin transporter overexpressing cells or ten minutes at 37° C. for noradrenaline overexpressing cells. Following termination of the assay, Microscint-20 was added directly to the cells and the amount of radioactivity taken up by the cells was estimated by scintillation counting.
(§2) pEC50 values indicating inhibition of monoamine uptake were calculated using standard curve fitting techniques.

Test [2] concerns the target T2, human noradrenaline transporter (hNET) (Homo sapiens, UniProt P23975).
T2 construct: expressed in transfected cells
The test is described as follows: Assay of monoamine uptake: inhibition of noradrenaline uptake. The settings on record: MDCK cells expressing hNET; 20 nM [3H]-neurotransmitter mixture; 37° C.; read-out: hNET pEC50 (inhibition of noradrenaline uptake) (converted). As to the method: as §1, §2

Test [3] concerns the target T3, human dopamine transporter (hDAT) (Homo sapiens, UniProt Q01959).
T3 construct: expressed in transfected cells
The experiment in a line: Assay of monoamine uptake: inhibition of dopamine uptake. The note with it: Chinese Hamster Ovary cells expressing hDAT; 20 nM [3H]-neurotransmitter mixture; ambient temperature; read-out: hDAT pEC50 (inhibition of dopamine uptake) (converted). As to the method: as §1, §2

T1 sequence (P31645 whole entry): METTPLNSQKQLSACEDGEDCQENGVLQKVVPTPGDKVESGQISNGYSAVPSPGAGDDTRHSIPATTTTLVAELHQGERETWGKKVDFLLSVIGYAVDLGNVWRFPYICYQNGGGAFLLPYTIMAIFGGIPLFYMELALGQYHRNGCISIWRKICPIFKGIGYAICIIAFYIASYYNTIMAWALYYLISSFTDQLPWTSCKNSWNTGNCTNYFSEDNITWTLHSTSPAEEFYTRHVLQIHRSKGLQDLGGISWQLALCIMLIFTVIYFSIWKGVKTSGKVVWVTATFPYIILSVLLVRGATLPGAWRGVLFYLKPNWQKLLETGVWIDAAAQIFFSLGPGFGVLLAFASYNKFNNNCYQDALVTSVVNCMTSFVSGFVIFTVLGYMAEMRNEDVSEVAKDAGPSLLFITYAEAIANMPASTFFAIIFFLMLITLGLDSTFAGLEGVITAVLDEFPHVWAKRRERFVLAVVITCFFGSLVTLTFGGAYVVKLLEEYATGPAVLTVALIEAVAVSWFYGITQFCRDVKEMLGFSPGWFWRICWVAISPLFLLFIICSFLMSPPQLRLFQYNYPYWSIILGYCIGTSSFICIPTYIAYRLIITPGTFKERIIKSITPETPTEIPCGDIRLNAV
T2 sequence (P23975 whole entry): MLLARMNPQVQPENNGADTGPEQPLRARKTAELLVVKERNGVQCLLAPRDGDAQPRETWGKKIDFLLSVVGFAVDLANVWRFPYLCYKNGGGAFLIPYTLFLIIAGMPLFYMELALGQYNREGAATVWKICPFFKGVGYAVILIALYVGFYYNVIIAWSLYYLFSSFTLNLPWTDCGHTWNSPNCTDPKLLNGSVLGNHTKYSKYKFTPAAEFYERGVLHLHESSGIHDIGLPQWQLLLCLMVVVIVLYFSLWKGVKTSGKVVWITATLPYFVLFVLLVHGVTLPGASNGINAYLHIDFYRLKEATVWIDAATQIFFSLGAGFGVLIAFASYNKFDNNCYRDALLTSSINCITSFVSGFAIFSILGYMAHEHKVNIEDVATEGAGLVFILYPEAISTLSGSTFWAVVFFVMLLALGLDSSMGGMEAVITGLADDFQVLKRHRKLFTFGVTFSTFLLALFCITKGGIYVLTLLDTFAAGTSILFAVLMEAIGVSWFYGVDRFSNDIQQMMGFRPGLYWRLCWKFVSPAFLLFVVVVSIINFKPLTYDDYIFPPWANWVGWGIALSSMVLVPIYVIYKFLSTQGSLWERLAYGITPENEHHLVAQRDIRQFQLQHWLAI
T3 sequence (Q01959 whole entry): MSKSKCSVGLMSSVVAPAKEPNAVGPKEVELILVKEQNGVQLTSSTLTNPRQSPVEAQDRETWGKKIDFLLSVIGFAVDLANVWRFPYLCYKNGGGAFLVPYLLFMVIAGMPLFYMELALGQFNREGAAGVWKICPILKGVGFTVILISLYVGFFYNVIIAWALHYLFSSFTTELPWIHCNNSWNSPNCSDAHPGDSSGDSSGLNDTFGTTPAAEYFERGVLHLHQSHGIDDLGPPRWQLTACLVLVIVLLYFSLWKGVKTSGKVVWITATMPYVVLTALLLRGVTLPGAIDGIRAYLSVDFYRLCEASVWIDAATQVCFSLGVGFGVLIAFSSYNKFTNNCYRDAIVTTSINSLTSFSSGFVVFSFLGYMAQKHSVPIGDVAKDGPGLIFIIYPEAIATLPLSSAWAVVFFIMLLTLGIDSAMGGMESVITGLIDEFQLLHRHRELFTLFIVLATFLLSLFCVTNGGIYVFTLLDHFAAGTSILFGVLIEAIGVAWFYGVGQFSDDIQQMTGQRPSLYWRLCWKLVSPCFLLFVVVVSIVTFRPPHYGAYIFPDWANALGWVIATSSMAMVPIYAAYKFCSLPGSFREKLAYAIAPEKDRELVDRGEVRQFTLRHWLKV

For the molecule `c1ccc(Oc2cccc(O[C@H]3C[C@H]4CC[C@@H](C3)N4)c2)cc1` [III.5, 3-endo-(3-Phenoxyphenoxy)-8-azabicyclo[3.2.1]octane], the EC50 in test [1] is more than 1 µM; in test [2], 0.1 to 1 µM; in test [3] it was less than 0.1 µM.

With `FC(F)(F)c1ccccc1-c1cccc(O[C@@H]2C[C@H]3CC[C@@H](C2)N3)c1` [IV.8, 3-exo-(2′-Trifluoromethylbiphenyl-3-yloxy)-8-azabicyclo[3.2.1]octane], the EC50 in test [1] was 0.1 to 1 µM; in test [2] it was less than 0.1 µM; in test [3], more than 1 µM.

Regarding `COc1cc(Oc2ccccc2)cc(O[C@@H]2C[C@H]3CC[C@@H](C2)N3)c1F` [IV.9, 3-exo-(2-Fluoro-3-methoxy-5-phenoxyphenoxy)-8-azabicyclo[3.2.1]octane], the EC50 in test [1] is more than 1 µM; in test [2], less than 0.1 µM; in test [3], less than 0.1 µM.

On to `Clc1cc(Oc2ccccc2)cc(O[C@@H]2C[C@H]3CC[C@@H](C2)N3)c1` [IV.19, 3-exo-(3-Chloro-5-phenoxyphenoxy)-8-azabicyclo[3.2.1]octane], for which the EC50 in test [1] is more than 1 µM; in test [2], less than 0.1 µM; in test [3], less than 0.1 µM.

On to `N#Cc1ccc(-c2cc(C#N)cc(O[C@@H]3C[C@H]4CC[C@@H](C3)N4)c2)nc1` [IX.3, exo 6-(3-(8-Azabicyclo[3.2.1]oct-3-yloxy)-5-cyanophenyl)nicotinonitrile], for which the EC50 in test [1] is less than 0.1 µM; in test [2], more than 1 µM; in test [3], more than 1 µM.

For the molecule `FC(F)(F)c1ccc(O[C@@H]2C[C@H]3CC[C@@H](C2)N3)cc1-c1ccccc1` [VI.3, 3-exo-(6-Trifluoromethylbiphenyl-3-yloxy)-8-azabicyclo[3.2.1]octane], the EC50 in test [1] is 0.1 to 1 µM; in test [2], more than 1 µM; in test [3], more than 1 µM.

Consider `N#Cc1ccc(-c2cc(C#N)cc(O[C@@H]3C[C@H]4CC[C@@H](C3)N4)c2)cc1` [VI.8, exo 5-(8-Azabicyclo[3.2.1]oct-3-yloxy)-biphenyl-3,4′-dicarbonitrile], for which the EC50 is less than 0.1 µM in test [1], more than 1 µM in test [2] and more than 1 µM in test [3].

The values above are taken from patent publication US7605170B2, “8-azabicyclo[3.2.1]octane derivatives” (N.V. Organon, priority 2005, dated 2009).
